Measurements: ChEMBL document CHEMBL1138766, “Synthesis and biological evaluation of new acinetoferrin homologues for use as iron transport probes in mycobacteria” (2004)

Test system: Mycobacterium avium
Experiment: Growth index for Mycobacterium avium sub species paratuberculosis was measured relative to mycobactin J
Assay type: functional

Row | Structure (SMILES) | Growth Index
1 | CCCCCCCCCCCCC/C=C/C(=O)N(O)CCCC[C@H](NC(=O)[C@@H]1CCC(c2ccccc2O)=N1)C(=O)OC(C(C)C)C(C)C(=O)N[C@H]1CCCCN(O)C1=O (stereo partly specified) | 1
2 | CCCCC/C=C/C(=O)N(O)CCCCCNC(=O)CC(O)(CC(=O)NCCCCCN(O)C(=O)/C=C/CCCCC)C(=O)O | 0.96
3 | CCCCC/C=C/C(=O)N(O)CCCCCCNC(=O)CC1(O)CC(=O)N(CCCCCCN(O)C(=O)/C=C/CCCCC)C1=O (stereo unspecified) | 1.01
4 | CCCCC/C=C/C(=O)N(O)CCCCCNC(=O)CC1(O)CC(=O)N(CCCCCN(O)C(=O)/C=C/CCCCC)C1=O (stereo unspecified) | 1.17
5 | CCCCC/C=C/C(=O)N(O)CCCCCCNC(=O)CC(O)(CC(=O)NCCCCCCN(O)C(=O)/C=C/CCCCC)C(=O)O | 0.95
6 | CC(=O)N(O)CCCCCNC(=O)CCC(=O)N(O)CCCCCNC(=O)CCC(=O)N(O)CCCCCN [DEFEROXAMINE] | 1.09
